One assay concerns the target T1, human chymase (Homo sapiens, UniProt P23946).
T1 sequence (P23946 22-247): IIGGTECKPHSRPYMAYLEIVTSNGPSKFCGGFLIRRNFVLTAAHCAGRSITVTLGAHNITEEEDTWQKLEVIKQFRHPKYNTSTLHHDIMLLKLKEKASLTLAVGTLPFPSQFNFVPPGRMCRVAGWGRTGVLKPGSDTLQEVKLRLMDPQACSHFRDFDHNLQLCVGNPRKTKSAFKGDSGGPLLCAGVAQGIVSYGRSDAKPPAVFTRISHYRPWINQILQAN
The experiment in a line: Chymase inhibitory activity (Suc-Ala-Ala-Pro-Phe-pNA substrate, absorption 405 nm). As to conditions: purified human chymase, 30 minutes at 37 °C preincubation, substrate 0.5 mM. Format: biochemical. The procedure: Compound (I) was dissolved in dimethylsulfoxide (DMSO) at 10^-2 M. Concentration of DMSO for activity measurement was 1 %.
Compound (I) dissolved in DMSO and purified human chymase (Takai et al., Clinica Chimica Acta 265, 1997, 13-20) were added to a buffer (0.1M Tris-HCl, 1.8M NaCl pH8.0). After the mixture was treated for 30 minutes at 37 °C, Suc-Ala-Ala-Pro-Phe-pNA (BACHEM Feinchemikalien AG) was added at 0.5 mM as a substrate and the mixture was enzymatically reacted at 37 °C.
After the reaction, the absorption intensity (405 nm) of the solution was measured to calculate the inhibitory rate.

The next assay deals with IL-1β. The experiment in a line: Cytokine production inhibitory activity, Concanavalin A stimulated mononuclear cells, ELISA: IL-1β. It is filed as cell-based. As to conditions: IL-1β in culture supernatant, human mononuclear cells, Concanavalin A 5 µg/ml, forty-eight hours. The procedure: (§1) After human blood obtained in heparinized tube was layered on the Filcoll - Hypaque mixed solution (density=1.114, mono-poly separation solution, Dainippon Pharmaceutical Co., Ltd.), it was centrifuged to prepare mononuclear cells. The obtained mononuclear cells were suspended in a medium (Macrophage-SFM:GIBCO) to adjust 2 X 10^6 cells/ml and cultivated in 48-well plates. Ten minutes later addition of the compound of the present invention, Concanavalin A (5 µg/ml) was added to stimulate cells. After forty-eight hours, IL-1β, IL-2, IL-4, IL-5, IL-6, TNF-α and IFNγ in the culture supernatant were quantified by ELISA method. The following kits were used for the quantification of these cytokines. • IL-1β: Quantikine(Trademark) Human IL-1β ELISA KIT (R&D system) • IL-2: Quantikine(Trademark) Human IL-2 ELISA KIT (R&D system) • IL-4: Quantikine(Trademark) Human IL-4 ELISA KIT (R&D system) • IL-5: Quantikine(Trademark) Human IL-5 ELISA KIT (R&D system) • IL-6: Quantikine(Trademark) Human IL-6 ELISA KIT (R&D system) • TNF-α: Quantikine(Trademark) Human TNF-α ELISA KIT (R&D system) • IFNγ: Quantikine(Trademark) Human IFNγ ELISA KIT (R&D system)

Another assay has as its system IL-2. The experiment in a line: Cytokine production inhibitory activity, Concanavalin A stimulated mononuclear cells, ELISA: IL-2. Format: cell-based. As to conditions: IL-2 in culture supernatant, Concanavalin A 5 µg/ml, forty-eight hours. The procedure: as §1
(ELISA stands for enzyme-linked immunosorbent assay.)

A further assay relates to IL-4. The experiment in a line: Cytokine production inhibitory activity, Concanavalin A stimulated mononuclear cells, ELISA: IL-4. It is filed as cell-based. As to conditions: IL-4 in culture supernatant, Concanavalin A 5 µg/ml, forty-eight hours. The procedure:
as §1

The subject of a further assay is IL-5. The experiment in a line: Cytokine production inhibitory activity, Concanavalin A stimulated mononuclear cells, ELISA: IL-5. As to conditions: IL-5 in culture supernatant, human mononuclear cells, Concanavalin A 5 µg/ml, forty-eight hours. It is filed as cell-based. The procedure: as §1
The test system of the next assay is IL-6. In words: Cytokine production inhibitory activity, Concanavalin A stimulated mononuclear cells, ELISA: IL-6. Format: cell-based. As to conditions: IL-6 in culture supernatant, Concanavalin A 5 µg/ml, forty-eight hours. The procedure:
as §1

Another assay concerns TNF-α. In words: Cytokine production inhibitory activity, Concanavalin A stimulated mononuclear cells, ELISA: TNF-α. Format: cell-based. As to conditions: TNF-α in culture supernatant, human mononuclear cells, Concanavalin A 5 µg/ml, forty-eight hours. The procedure: as §1
The next assay deals with IFNγ. The experiment in a line: Cytokine production inhibitory activity, Concanavalin A stimulated mononuclear cells, ELISA: IFNγ. It is filed as cell-based. As to conditions: IFNγ in culture supernatant, Concanavalin A 5 µg/ml, forty-eight hours. The procedure:
as §1

Among the data in EP1099690A1, “MONOCYCLIC $g(b)-LACTAM COMPOUNDS AND CHYMASE INHIBITORS CONTAINING THE SAME” (SHIONOGI & CO., LTD., priority 1998, dated 2000) are IC50 values, retold here.

pIC50: −log10 of the molar value.

In general, pIC50 refers to the negative decadic logarithm of the IC50, by convention in mol/L.

For the compound `CC(NC(=O)N1C(=O)C(Cc2ccccc2)C1Oc1ccc(C(=O)N2CCN(C)CC2)cc1)c1ccccc1` (stereo not shown) [Compound I-39, 3-Benzyl-2-[4-(4-methyl-piperazine-1-carbonyl)-phenoxy]-4-oxo-azetidine-1-carboxylic acid (1-phenyl-ethyl)-amide], the pIC50 is 9.34 against human chymase; 5.57 in the assay with IL-1β; 5.57 in the assay with IL-2 (Homo sapiens); 4.93 with IL-4 (Homo sapiens); 5.19 in the assay on IL-5; 5.19 in the assay with IL-6 (Homo sapiens). Also, the pIC50 is 5.72 with TNF-α and 4.92 with IFNγ (Homo sapiens).

For `CC(NC(=O)N1C(=O)C(Cc2ccccc2)C1Oc1ccc(C(=O)N2CCN(C)CC2)cc1)c1ccccc1` (stereo not shown) [Compound I-62, 3-Benzyl-2-[4-(4-methyl-piperazine-1-carbonyl)-phenoxy]-4-oxo-azetidine-1-carboxylic acid (1-phenyl-ethyl)-amide], the pIC50 at human chymase was 9.77; in the assay with IL-1β, 4.95; with IL-2 (human mononuclear cells) it was 5.62; in the assay on IL-4 (human mononuclear cells) it was 4.69; in the assay with IL-5 it was 4.86; in the assay with IL-6 (human mononuclear cells), 5.03. In addition, the pIC50 with TNF-α is 5.17; with IFNγ (human mononuclear cells), 4.77.
